From US20240342292A1, “Compounds for the Degradation of EGFR Kinase” (BeiGene Switzerland GmbH, priority 2021, published 2024)

What was measured:
Del19/T790M/C797S EGFR = assay: EGFR degradation HTRF assay in H1975-clone #28 (DTC) cells; format: cell-based; conditions: H1975 # 28 DTC (Del19/T790M/C797S), 16h treatment; for DC50: HTRF; for Dmax (%): maximum percentage of degradation
In short: (§1)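 Remaining EGFR protein was measured by HTRF (337 nm excitation, 665/620 nm emission) in lysates after overnight antibody incubation. Cells had been exposed for 16 h to an 8-point, 5-fold series starting at 10 uM, and DC50 values were fitted with a Hill equation.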

L858R/T790M/C797S EGFR = target: T1, L858R/T790M/C797S EGFR (Homo sapiens, UniProt P00533, C797S/L858R/T790M); assay: EGFR degradation HTRF assay in H1975-clone #25 (LTC) cells; format: cell-based; conditions: 16h treatment; for DC50: H1975 # 25-LTC (L858R/T790M/C797S), HTRF; for Dmax: NCI-H1975, H1975 # 25-LTC (L858R/T790M/C797S), maximum percentage of degradation
T1 construct: expressed in transfected cells; host or cells: H1975 clone #25 (lentiviral over-expression, endogenous EGFR knocked out by sgRNA)
T1 sequence (P00533 25-1210 T790M/C797S/L858R): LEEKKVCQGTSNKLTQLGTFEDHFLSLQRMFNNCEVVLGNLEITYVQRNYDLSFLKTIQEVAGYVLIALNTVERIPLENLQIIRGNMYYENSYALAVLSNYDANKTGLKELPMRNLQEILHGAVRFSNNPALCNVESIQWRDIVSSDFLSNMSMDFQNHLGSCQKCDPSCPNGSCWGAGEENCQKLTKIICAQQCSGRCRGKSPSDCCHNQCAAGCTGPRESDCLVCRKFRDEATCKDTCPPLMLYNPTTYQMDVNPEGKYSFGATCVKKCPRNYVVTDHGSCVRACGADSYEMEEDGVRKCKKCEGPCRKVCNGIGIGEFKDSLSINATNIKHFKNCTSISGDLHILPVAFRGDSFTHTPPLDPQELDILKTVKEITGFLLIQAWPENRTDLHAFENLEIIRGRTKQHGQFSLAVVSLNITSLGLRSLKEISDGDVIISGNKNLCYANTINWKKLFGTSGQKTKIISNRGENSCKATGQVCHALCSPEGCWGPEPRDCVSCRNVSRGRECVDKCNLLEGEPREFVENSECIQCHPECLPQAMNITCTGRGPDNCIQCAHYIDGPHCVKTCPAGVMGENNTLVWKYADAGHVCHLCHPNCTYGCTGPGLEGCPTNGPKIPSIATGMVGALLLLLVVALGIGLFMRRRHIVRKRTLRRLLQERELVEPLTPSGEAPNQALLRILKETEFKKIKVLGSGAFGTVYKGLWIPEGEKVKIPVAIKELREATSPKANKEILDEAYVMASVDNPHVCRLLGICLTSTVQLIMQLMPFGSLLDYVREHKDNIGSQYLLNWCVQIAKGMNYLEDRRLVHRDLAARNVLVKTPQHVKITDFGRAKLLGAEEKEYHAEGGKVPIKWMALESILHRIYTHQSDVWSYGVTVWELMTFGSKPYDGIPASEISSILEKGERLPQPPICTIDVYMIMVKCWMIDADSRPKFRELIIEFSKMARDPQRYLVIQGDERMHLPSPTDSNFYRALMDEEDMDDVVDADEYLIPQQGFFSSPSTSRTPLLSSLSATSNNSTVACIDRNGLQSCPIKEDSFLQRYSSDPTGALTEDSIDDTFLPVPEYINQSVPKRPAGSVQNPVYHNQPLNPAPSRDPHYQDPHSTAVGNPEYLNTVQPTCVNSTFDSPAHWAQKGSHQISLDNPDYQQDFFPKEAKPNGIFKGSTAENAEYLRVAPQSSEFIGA
In short: as §1

Row | SMILES | DC50 (Del19/T790M/C797S EGFR) | DC50 (L858R/T790M/C797S EGFR) | Dmax (L858R/T790M/C797S EGFR) | Dmax (%) (Del19/T790M/C797S EGFR)
1 | Cc1cc2cc(n1)-c1cnn(C)c1OCCC[C@@H](C)CN1/C(=N/C2=O)Nc2ccc(C(=O)N(C)[C@H]3CCN(CCc4cc(F)c([C@H]5CCC(=O)NC5=O)c(F)c4)[C@@H](C)C3)cc21 [Example 267, (R,E)-N—((2S,4S)-1-(4-((R)-2,6-dioxopiperidin-3-yl)-3,5-difluorophenethyl)-2-methylpiperidin-4-yl)-N,1^1,2^6,7-tetramethyl-3-oxo-5^2,5^3-dihydro-1^1H,5^1H-11-oxa-4-aza-5(2,1)-benzo[d]imidazola-2(2,4)-pyridina-1(4,5)-pyrazolacycloundecaphane-5^6-carboxamide] | 0.624 nM | 0.602 nM | 91.7% | 76.64%
2 | Cc1cc2cc(n1)-c1cnn(C)c1OCCC[C@@H](C)CN1/C(=N/C2=O)Nc2ccc(N3CCN(CC4CN(c5cc(F)c([C@H]6CCC(=O)NC6=O)c(F)c5)C4)[C@@H](CO)C3)cc21 [Example 422, (R)-3-(2,6-difluoro-4-(3-(((R)-2-(hydroxymethyl)-4-((R,E)-1^1,2^6,7-trimethyl-3-oxo-5^2,5^3-dihydro-1^1H,5^1H-li-oxa-4-aza-5(2,1)-benzo[d]imidazola-2(2,4)-pyridina-1(4,5)-pyrazolacycloundecaphane-5^6-yl)piperazin-1-yl)methyl)azetidin-1-yl)phenyl)piperidine-2,6-dione] | 0.652 nM | 0.856 nM | 92.2% | 83.55%
3 | Cc1cc2cc(n1)-c1cnn(C)c1OCCC[C@@H](C)CN1/C(=N/C2=O)Nc2ccc(C(=O)N(C)C3CCN(CCc4cccc5c4oc(=O)n5C4CCC(=O)NC4=O)CC3)cc21 (stereo partly drawn) [Example 315, (7R,E)-N-(1-(2-(3-(2,6-dioxopiperidin-3-yl)-2-oxo-2,3-dihydrobenzo[d]oxazol-7-yl)ethyl)piperidin-4-yl)-N,1^1,2,7-tetramethyl-3-oxo-5^2,5^3-dihydro-1^1H,5^1H-11-oxa-4-aza-5(2,1)-benzo[d]imidazola-2(2,4)-pyridina-1(4,5)-pyrazolacycloundecaphane-5^6-carboxamide] | 3.18 nM | 1.37 nM | 80.5% | 63.86%
4 | Cc1cc2cc(n1)-c1cnn(C)c1OCCC[C@@H](C)CN1/C(=N/C2=O)Nc2ccc(C(=O)N3CCN(CCCc4cc(F)c([C@H]5CCC(=O)NC5=O)c(F)c4)CC3)cc21 [Example 341, (R)-3-(2,6-difluoro-4-(3-(4-((R,E)-1^1,2^6,7-trimethyl-3-oxo-5^2,5^3-dihydro-1^1H,5^1H-11-oxa-4-aza-5(2,1)-benzo[d]imidazola-2(2,4)-pyridina-1(4,5)-pyrazolacycloundecaphane-5^6-carbonyl)piperazin-1-yl)propyl)phenyl)piperidine-2,6-dione] | 0.621 nM | 0.54 nM | 86.8% | 79.84%
5 | Cc1cc2cc(n1)-c1cnn(C)c1OCCC[C@@H](C)CN1/C(=N/C2=O)Nc2ccc(N3CCN(C4CCN(c5cc(F)c([C@H]6CCC(=O)NC6=O)c(F)c5)CC4)[C@H](CO)C3)cc21 [Example 447, (R)-3-(2,6-difluoro-4-(4-((S)-2-(hydroxymethyl)-4-((R,E)-1^1,2^6,7-trimethyl-3-oxo-5^2,5^3-dihydro-1^1H,5^1H-11-oxa-4-aza-5(2,1)-benzo[d]imidazola-2(2,4)-pyridina-1(4,5)-pyrazolacycloundecaphane-5^6-yl)piperazin-1-yl)piperidin-1-yl)phenyl)piperidine-2,6-dione] | 0.645 nM | 0.652 nM | 84.2% | 76.31%
6 | Cc1cc2cc(n1)-c1cnn(C)c1OCCC[C@@H](C)CN1/C(=N/C2=O)Nc2ccc(N3CCN(C4CCN(c5ccc(C6CCC(=O)NC6=O)nc5)CC4)CC3)cc21 (stereo partly drawn) [Example 373, 3-(5-(4-(4-((R,E)-1^1,2^6,7-trimethyl-3-oxo-5^2,5^1-dihydro-1^1H,5^1H-11-oxa-4-aza-5(2,1)-benzo[d]imidazola-2(2,4)-pyridina-1(4,5)-pyrazolacycloundecaphane-5^6-yl)piperazin-1-yl)piperidin-1-yl)pyridin-2-yl)piperidine-2,6-dione] | 0.656 nM | 0.47 nM | 84.9% | 69.22%
7 | Cc1cc2cc(n1)-c1cnn(C)c1OCCC[C@@H](C)CN1/C(=N/C2=O)Nc2ccc(C(=O)N(C)C3CN(CCc4cc(F)c([C@H]5CCC(=O)NC5=O)c(F)c4)C3)cc21 [Example 308] | 0.646 nM | 0.702 nM | 88.5% | 64.88%
8 | Cc1cc2cc(n1)-c1cnn(C)c1OCCC[C@@H](C)CN1/C(=N/C2=O)Nc2ccc(NC3CN(C4CCN(c5cc(F)c([C@H]6CCC(=O)NC6=O)c(F)c5)CC4)C3)cc21 [Example 459, (R)-3-(2,6-difluoro-4-(4-(3-(((R,E)-1^1,2^6,7-trimethyl-3-oxo-5^2,5^3-dihydro-1^1H,5^1H-11-oxa-4-aza-5(2,1)-benzo[d]imidazola-2(2,4)-pyridina-1(4,5)-pyrazolacycloundecaphane-5^6-yl)amino)azetidin-1-yl)piperidin-1-yl)phenyl)piperidine-2,6-dione] | 0.624 nM | 0.431 nM | 84.1% | 73.95%

The remaining molecules from weak to strong by DC50 (Del19/T790M/C797S EGFR), led by results:

Row | DC50 (Del19/T790M/C797S EGFR) | DC50 (L858R/T790M/C797S EGFR) | Dmax (L858R/T790M/C797S EGFR) | SMILES | Dmax (%) (Del19/T790M/C797S EGFR)
9 | 0.621 nM | 0.51 nM | 91.8% | Cc1cc2cc(n1)-c1cnn(C)c1OCCC[C@@H](C)CN1/C(=N/C2=O)Nc2ccc(C(=O)N[C@H]3CCN(CCc4cc(F)c([C@H]5CCC(=O)NC5=O)c(F)c4)CC3(C)C)cc21 [Example 261, (R,E)-N—((S)-1-(4-((R)-2,6-dioxopiperidin-3-yl)-3,5-difluorophenethyl)-3,3-dimethylpiperidin-4-yl)-1^1,2^6,7-trimethyl-3-oxo-5^2,5^3-dihydro-1^1H,5^1H-11-oxa-4-aza-5(2,1)-benzo[d]imidazola-2(2,4)-pyridina-1(4,5)-pyrazolacycloundecaphane-5^6-carboxamide] | 83.61%
10 | 0.604 nM | 0.624 nM | 91.8% | Cc1cc2cc(n1)-c1cnn(C)c1OCC[C@H]1C[C@@H]1CN1/C(=N/C2=O)Nc2ccc(N3CCN(C4CCN(c5cnc(C6CCC(=O)NC6=O)cc5C)CC4)CC3)cc21 (stereo partly drawn) [Example 463, 3-(5-(4-(4-((7'S,7^2R,E)-1^1,2^6-dimethyl-3-oxo-5^2,5^3-dihydro-1^1H,5^1H-10-oxa-4-aza-5(2,1)-benzo[d]imidazola-2(2,4)-pyridina-1(4,5)-pyrazola-7(1,2)-cyclopropanacyclodecaphane-5^6-yl)piperazin-1-yl)piperidin-1-yl)-4-methylpyridin-2-yl)piperidine-2,6-dione] | 90.22%
11 | 0.561 nM | 0.614 nM | 91.7% | Cc1cc2cc(n1)-c1cnn(C)c1OCCC[C@@H](C)CN1/C(=N/C2=O)Nc2ccc(C(=O)N(C)[C@H]3CCN(CCNc4cc(F)c([C@H]5CCC(=O)NC5=O)c(F)c4)C[C@H]3F)cc21 [Example 351, (R,E)-N—((3R,4S)-1-(2-((4-((R)-2,6-dioxopiperidin-3-yl)-3,5-difluorophenyl)amino)ethyl)-3-fluoropiperidin-4-yl)-N,1^1,2^6,7-tetramethyl-3-oxo-5^2,5^3-dihydro-1^1H,5^1H-11-oxa-4-aza-5(2,1)-benzo[d]imidazola-2(2,4)-pyridina-1(4,5)-pyrazolacycloundecaphane-5^6-carboxamide] | 83.91%
